Holding throughout (assay type): cell-based
Experiment [1] concerns human lymphoma cell line RAMOS cells. The experiment in a line: Cell growth inhibition test using RAMOS cell, ATP assay (CellTiter-Glo). To be noted: Homo sapiens, Ramos, 72 h, cultured 3 days, 50% growth inhibition concentration. An outline of the steps: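 RAMOS cells seeded at 4000 cells/well with compound and cultured 3 days at 37° C, 5% CO2; viability by CellTiter-Glo luminescence. Growth rate T/C % = 100×[(B−C)/(A−C)] using day-0 and final readings; GI50 interpolated from the two concentrations bracketing 50% growth.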

The next experiment deals with MCF7. The experiment is described as follows: Cell growth inhibition test, MCF7. Particulars: Homo sapiens, 72 h; MCF7, Breast cancer, 3 days, CellTiter-Glo. On the procedure: (§1) A cell growth inhibition test was carried out by treating a cultured cancer cell line with a test compound for a given period and then counting the number of viable cells by CellTiter-Glo Luminescent Cell Viability Assay (manufactured by Promega Corp.).
(§2) The following cells were inoculated to a 384-well plate containing the compound prepared in advance at predetermined concentrations. […]
(§3) The cells thus inoculated were cultured at 37° C. for 3 days under 5% CO2. […] Then, luminescence intensity was measured using a plate reader.
(§4) The number of viable cells and luminescence intensity have been confirmed to correlate with each other. Therefore, the rate of cell growth was calculated according to the following expression: Rate of cell growth (T/C %) of a test compound-supplemented well=100×[(B−C)/(A−C)] wherein A represents the luminescence intensity (final culture date) of a test compound-free well; B represents the luminescence intensity (final culture date) of a test compound-containing well; and C represents the luminescence intensity (day of cell inoculation) of a well at the start of contact of the cells with the test compound.
(§5) T/C % at the concentration of each of the serially diluted test compounds was determined. […]
In general terms: Cellular ATP, detected with luciferase, serves as a proxy for viable cell number.

A further experiment concerns CAL-51. The experiment is described as follows: Cell growth inhibition test, CAL-51. Particulars: Homo sapiens, 72 h; CAL-51, Breast cancer, 3 days, CellTiter-Glo. As to the method:
as §1, §2, §3, §4, §5

For a further experiment, the system named is SK-BR-3. The experiment in a line: Cell growth inhibition test, SK-BR-3. Particulars: Homo sapiens, 72 h; SK-BR-3, Breast cancer, 3 days, CellTiter-Glo. As to the method: as §1, §2, §3, §4, §5
Another experiment concerns BT-20. The experiment is described as follows: Cell growth inhibition test, BT-20. Particulars: Homo sapiens, 72 h; BT-20, Breast cancer, 3 days, CellTiter-Glo. As to the method:
as §1, §2, §3, §4, §5

A further experiment deals with U251. The experiment in a line: Cell growth inhibition test, U251. To be noted: Homo sapiens, U-251, 72 h; U251, Brain tumor Central Nerve System, 3 days, CellTiter-Glo. As to the method:
as §1, §2, §3, §4, §5

The next experiment deals with HCT 116. The experiment is described as follows: Cell growth inhibition test, HCT 116. To be noted: Homo sapiens, 72 h; HCT 116, Large intestine cancer, 3 days, CellTiter-Glo. As to the method: as §1, §2, §3, §4, §5
Another experiment has as its system MKN45. The experiment is described as follows: Cell growth inhibition test, MKN45. Particulars: Homo sapiens, MKN-45, 72 h; MKN45, Stomach cancer, 3 days, CellTiter-Glo. On the procedure:
as §1, §2, §3, §4, §5

The subject of the next experiment is K-562. The experiment is described as follows: Cell growth inhibition test, K-562. To be noted: Homo sapiens, K562, 72 h; K-562, Leukemia, 3 days, CellTiter-Glo. As to the method:
as §1, §2, §3, §4, §5

The subject of a further experiment is HUH-7. The experiment is described as follows: Cell growth inhibition test, HUH-7. To be noted: Homo sapiens, 72 h; HUH-7, Liver cancer, 3 days, CellTiter-Glo. As to the method:
as §1, §2, §3, §4, §5

In another experiment the test system is NCI-H460. The experiment in a line: Cell growth inhibition test, NCI-H460. Particulars: Homo sapiens, 72 h; NCI-H460, Lung cancer, 3 days, CellTiter-Glo. On the procedure:
as §1, §2, §3, §4, §5

The subject of the next experiment is CALU-6. The experiment in a line: Cell growth inhibition test, CALU-6. Particulars: Homo sapiens, 72 h; CALU-6, Lung cancer, 3 days, CellTiter-Glo. As to the method:
as §1, §2, §3, §4, §5

For another experiment, the system named is BxPC-3. The experiment is described as follows: Cell growth inhibition test, BxPC-3. Particulars: Homo sapiens, 72 h; BxPC-3, Pancreatic cancer, 3 days, CellTiter-Glo. As to the method:
as §1, §2, §3, §4, §5

For another experiment, the system named is DU 145. The experiment in a line: Cell growth inhibition test, DU 145. To be noted: Homo sapiens, 72 h; DU 145, Prostate cancer, 3 days, CellTiter-Glo. On the procedure: as §1, §2, §3, §4, §5
For another experiment, the system named is SK-MEL-28. The experiment in a line: Cell growth inhibition test, SK-MEL-28. Particulars: Homo sapiens, 72 h; SK-MEL-28, Skin cancer, 3 days, CellTiter-Glo. As to the method:
as §1, §2, §3, §4, §5

We go through three compounds from patent US20170107207A1, “AMINOPYRAZOLONE DERIVATIVE” (DAIICHI SANKYO COMPANY, LIMITED, priority 2014, published 2017).

One may read the GI50 as the concentration at which growth is held to half of that of the control. For the compound `CCOc1ccc(Cl)cc1C(=O)NCC(C)(C)CC(=O)Nc1c([C@H](C)CN(C)C)n(C)n(-c2ccccc2)c1=O` [Example 68, 5-Chloro-N-[4-({5-[(1R)-2-(dimethylamino)-1-methylethyl]-1-methyl-3-oxo-2-phenyl-2,3-dihydro-1H-pyrazol-4-yl}amino)-2,2-dimethyl-4-oxobutyl]-2-ethoxybenzamide], the concentration for 50% growth inhibition (GI50) in [1] amounted to 140 nM; in the experiment with MCF7, 530 nM; in the experiment with CAL-51, 800 nM; in the experiment on SK-BR-3, 520 nM; with BT-20, 590 nM; in the experiment with U251, 440 nM. In addition, the GI50 in the experiment with HCT 116 was 180 nM; in the experiment with MKN45, 480 nM; in the experiment with K-562, 240 nM; in the experiment with HUH-7, 670 nM; with NCI-H460, 310 nM; in the experiment on CALU-6 it was 430 nM. For the same compound, the GI50 in the experiment on BxPC-3 was 220 nM; in the experiment on DU 145 it was 530 nM; in the experiment with SK-MEL-28, 590 nM.

On to `CCOc1cc(F)c(Cl)cc1C(=O)NCC(C)(C)CC(=O)Nc1c(COC)n(C)n(-c2ccccc2)c1=O` [Example 113, 5-Chloro-2-ethoxy-4-fluoro-N-(4-{[5-(methoxymethyl)-1-methyl-3-oxo-2-phenyl-2,3-dihydro-1H-pyrazol-4-yl]amino}-2,2-dimethyl-4-oxobutyl)benzamide], for which the concentration for 50% growth inhibition (GI50) came out at 130 nM in experiment [1]; 750 nM with MCF7; 620 nM in the experiment with CAL-51; 650 nM in the experiment with SK-BR-3; 850 nM in the experiment with BT-20; 800 nM in the experiment with U251. Further, the GI50 was determined as 230 nM in the experiment with HCT 116; 1000 nM in the experiment with MKN45; 630 nM in the experiment on K-562; 360 nM with HUH-7; 550 nM in the experiment with NCI-H460; 680 nM in the experiment with CALU-6. The concentration for 50% growth inhibition (GI50) is 370 nM with BxPC-3, 650 nM in the experiment with DU 145 and 800 nM in the experiment with SK-MEL-28.

For the compound `CCOc1ncc(Cl)cc1C(=O)NCC(C)(C)CC(=O)Nc1c([C@H](C)CN(C)C)n(C)n(-c2ccccc2)c1=O` [Example 73, 5-Chloro-N-[4-({5-[(1R)-2-(dimethylamino)-1-methylethyl]-1-methyl-3-oxo-2-phenyl-2,3-dihydro-1H-pyrazol-4-yl}amino)-2,2-dimethyl-4-oxobutyl]-2-ethoxypyridine-3-carboxamide], the GI50 turned out to be 310 nM in [1]; 980 nM in the experiment on MCF7; 1300 nM with CAL-51; 1000 nM in the experiment on SK-BR-3; 1300 nM in the experiment on BT-20; 980 nM with U251. For the same compound, the 50% growth inhibitory concentration (GI50) was found to be 460 nM with HCT 116; 1100 nM in the experiment with MKN45; 560 nM in the experiment with K-562; 900 nM with HUH-7; 730 nM with NCI-H460; 780 nM with CALU-6. For the same compound, the GI50 is 440 nM with BxPC-3, 1100 nM in the experiment on DU 145 and 920 nM in the experiment on SK-MEL-28.
